From US6413245B1, “Sub-tenon drug delivery” (Alcon Universal Ltd., priority 1999, dated 2002) come the findings set out here.

This data set in a line: Retinal concentration of angiostatic steroid after sub-Tenon drug depot in rabbit eyes. The format is in vivo. To be noted: drug depot on outer surface of sclera, slightly posterior of the equator, measured the day after the injection, New Zealand White rabbits. From the text: Sclera 16 and Tenon's capsule 34 define the exterior surface of the globe of eye 10. For treatment of ARMD, CNV, retinopathies, retinitis, uveitis, cystoid macular edema (CME), glaucoma, and other diseases or conditions of posterior segment 26, it is preferable to dispose a depot 38 of a specific quantity of an ophthalmically acceptable pharmaceutically active agent directly on the outer surface of sclera 16 and below Tenon's capsule 34. In addition, in cases of ARMD and CME it is most preferable to dispose depot 38 directly on the outer surface of sclera 16, below Tenon's capsule 34, and generally above macula 30. In a study using New Zealand White rabbits, a drug depot of 4,9(11)-Pregnadien-17α,21-diol-3,20-dione-21-acetate, an angiostatic steroid available from Steraloids, Inc. of Wilton, New Hampshire, was disposed directly on the outer surface of the sclera, below the Tenon's capsule, and slightly posterior of the equator of the rabbit eyes. […] Given the fact that the Tenon's capsule of a New Zealand White rabbit is very thin, these beneficial results are highly unexpected. It is important to note that Tenon's capsule 34 of human eye 10 is also very thin. […]

Regarding `CC(=O)OCC(=O)[C@@]1(O)CC[C@H]2[C@@H]3CCC4=CC(=O)CC[C@]4(C)C3=CC[C@@]21C` [4,9(11)-Pregnadien-17α,21-diol-3,20-dione-21-acetate], the “concentration of the angiostatic steroid, averaged over the entire retina, relative to a depot located below the conjunctiva but above the Tenon's capsule” value is listed as “about ten times greater”.
